System: NCI-H322M multicellular tumor spheroids, viability (% test/control)
Assay: Anticancer human tumor NCI-H322M cell line growth inhibition;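 for viability, T/C: spheroids exposed to compound for seven days before readout; 100% = DMSO vehicle control wells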
Details: for IC50: curve of first compound; for viability, T/C: stronger effect = lower value; active = viability on the fitted dose curve at most 10% of control; inactive = the rest
Summary of the method: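 Single agents and combinations were tested on spheroids built from tumor cells plus HUVEC and hMSC, at half-log dilutions starting at or near clinical Cmax, else 10 microM; final DMSO 0.25% (v/v).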

[1] = second compound 1 µM, first compound 0.00949 µM
[2] = second compound 1 µM, first compound 0.03 µM
[3] = second compound 1 µM, first compound 0.0949 µM
[4] = second compound 1 µM, first compound 0.3 µM
[5] = second compound 1 µM, first compound 0.949 µM
[6] = second compound 1 µM, first compound 3 µM
[7] = second compound 3.16 µM, first compound 0.00949 µM
[8] = second compound 3.16 µM, first compound 0.03 µM
[9] = second compound 3.16 µM, first compound 0.0949 µM
[10] = second compound 3.16 µM, first compound 0.3 µM
[11] = second compound 3.16 µM, first compound 0.949 µM
[12] = second compound 3.16 µM, first compound 3 µM
[13] = second compound 10 µM, first compound 0.00949 µM
[14] = second compound 10 µM, first compound 0.03 µM
[15] = second compound 10 µM, first compound 0.0949 µM
[16] = second compound 10 µM, first compound 0.3 µM
[17] = second compound 10 µM, first compound 0.949 µM
[18] = second compound 10 µM, first compound 3 µM
[19] = second compound 31.6 µM, first compound 0.00949 µM
[20] = second compound 31.6 µM, first compound 0.03 µM
[21] = second compound 31.6 µM, first compound 0.0949 µM
[22] = second compound 31.6 µM, first compound 0.3 µM
[23] = second compound 31.6 µM, first compound 0.949 µM
[24] = second compound 31.6 µM, first compound 3 µM
[25] = second compound 100 µM, first compound 0.00949 µM
[26] = second compound 100 µM, first compound 0.03 µM
[27] = second compound 100 µM, first compound 0.0949 µM
[28] = second compound 100 µM, first compound 0.3 µM
[29] = second compound 100 µM, first compound 0.949 µM
[30] = second compound 100 µM, first compound 3 µM
[31] = second compound 1 µM, first compound 0.0316 µM
[32] = second compound 1 µM, first compound 0.1 µM
[33] = second compound 1 µM, first compound 0.316 µM
[34] = second compound 1 µM, first compound 1 µM
[35] = second compound 1 µM, first compound 3.16 µM
[36] = second compound 1 µM, first compound 10 µM
[37] = second compound 3.16 µM, first compound 0.0316 µM
[38] = second compound 3.16 µM, first compound 0.1 µM
[39] = second compound 3.16 µM, first compound 0.316 µM
[40] = second compound 3.16 µM, first compound 1 µM
[41] = second compound 3.16 µM, first compound 3.16 µM
[42] = second compound 3.16 µM, first compound 10 µM
[43] = second compound 10 µM, first compound 0.0316 µM
[44] = second compound 10 µM, first compound 0.1 µM
[45] = second compound 10 µM, first compound 0.316 µM
[46] = second compound 10 µM, first compound 1 µM
[47] = second compound 10 µM, first compound 3.16 µM
[48] = second compound 10 µM, first compound 10 µM
[49] = second compound 31.6 µM, first compound 0.0316 µM
[50] = second compound 31.6 µM, first compound 0.1 µM
[51] = second compound 31.6 µM, first compound 0.316 µM
[52] = second compound 31.6 µM, first compound 1 µM
[53] = second compound 31.6 µM, first compound 3.16 µM
[54] = second compound 31.6 µM, first compound 10 µM
[55] = second compound 100 µM, first compound 0.0316 µM
[56] = second compound 100 µM, first compound 0.1 µM
[57] = second compound 100 µM, first compound 0.316 µM
[58] = second compound 100 µM, first compound 1 µM
[59] = second compound 100 µM, first compound 3.16 µM
[60] = second compound 100 µM, first compound 10 µM

CNCc1ccc(-c2cc(-c3nc(-c4ccc(S(=O)(=O)C(C)C)cc4)cnc3N)on2)cc1 + Cn1nnc2c(C(N)=O)ncn2c1=O
inactive: viability, T/C [1] 100% | viability, T/C [2] 104% | viability, T/C [3] 82.1% | viability, T/C [4] 84.1% | viability, T/C [5] 75.7% | viability, T/C [6] 83.3% | viability, T/C [7] 79.5% | viability, T/C [8] 76.2% | viability, T/C [9] 75% | viability, T/C [10] 86.9% | viability, T/C [11] 81.4% | viability, T/C [12] 87.6% | viability, T/C [13] 78.7% | viability, T/C [14] 89% | viability, T/C [15] 77.6% | viability, T/C [16] 99.2% | viability, T/C [17] 81.1% | viability, T/C [18] 75.4% | viability, T/C [19] 110% | viability, T/C [20] 76.2% | viability, T/C [21] 78.3% | viability, T/C [22] 76.3% | viability, T/C [23] 68.4% | viability, T/C [24] 66% | viability, T/C [25] 95.6% | viability, T/C [26] 87% | viability, T/C [27] 81.7% | viability, T/C [28] 71% | viability, T/C [29] 70.1% | viability, T/C [30] 58.3%
> 3 µM: IC50 (second compound 1 µM) | IC50 (second compound 3.16 µM) | IC50 (second compound 10 µM) | IC50 (second compound 31.6 µM) | IC50 (second compound 100 µM)

COc1cc(C)[nH]c(=O)c1CN1CCc2c(Cl)cc(C(OC)C3COC3)c(Cl)c2C1=O (stereo not given) + Cn1nnc2c(C(N)=O)ncn2c1=O
> 10 µM: IC50 (second compound 1 µM) | IC50 (second compound 3.16 µM) | IC50 (second compound 10 µM) | IC50 (second compound 31.6 µM) | IC50 (second compound 100 µM)
inactive: viability, T/C [31] 90.6% | viability, T/C [32] 93.2% | viability, T/C [33] 97.7% | viability, T/C [34] 106% | viability, T/C [35] 88.1% | viability, T/C [36] 93.3% | viability, T/C [37] 97.5% | viability, T/C [38] 85.8% | viability, T/C [39] 97.4% | viability, T/C [40] 99.5% | viability, T/C [41] 95.4% | viability, T/C [42] 100% | viability, T/C [43] 100% | viability, T/C [44] 108% | viability, T/C [45] 97.2% | viability, T/C [46] 92.3% | viability, T/C [47] 90.2% | viability, T/C [48] 91.6% | viability, T/C [49] 91% | viability, T/C [50] 113% | viability, T/C [51] 102% | viability, T/C [52] 92.3% | viability, T/C [53] 94.1% | viability, T/C [54] 96.5% | viability, T/C [55] 109% | viability, T/C [56] 106% | viability, T/C [57] 114% | viability, T/C [58] 89.7% | viability, T/C [59] 95% | viability, T/C [60] 101%

Cc1cc(C)c(CNC(=O)c2cc(-c3ccc(CN4CCOCC4)cc3)cc3c2cnn3C2CCCC2)c(=O)[nH]1 + Cn1nnc2c(C(N)=O)ncn2c1=O
inactive: viability, T/C [31] 99.7% | viability, T/C [32] 101% | viability, T/C [33] 98.5% | viability, T/C [34] 94.3% | viability, T/C [35] 133% | viability, T/C [36] 95.5% | viability, T/C [37] 78% | viability, T/C [38] 102% | viability, T/C [39] 103% | viability, T/C [40] 81.3% | viability, T/C [41] 107% | viability, T/C [42] 118% | viability, T/C [43] 92.2% | viability, T/C [44] 94.3% | viability, T/C [45] 105% | viability, T/C [46] 106% | viability, T/C [47] 101% | viability, T/C [48] 119% | viability, T/C [49] 101% | viability, T/C [50] 95% | viability, T/C [51] 103% | viability, T/C [52] 104% | viability, T/C [53] 104% | viability, T/C [54] 122% | viability, T/C [55] 105% | viability, T/C [56] 100% | viability, T/C [57] 113% | viability, T/C [58] 96.8% | viability, T/C [59] 105% | viability, T/C [60] 123%
> 10 µM: IC50 (second compound 1 µM) | IC50 (second compound 3.16 µM) | IC50 (second compound 10 µM) | IC50 (second compound 31.6 µM) | IC50 (second compound 100 µM)

Cc1sc2c(c1C)C(c1ccc(Cl)cc1)=NC(CC(=O)Nc1ccc(O)cc1)c1nnc(C)n1-2 (stereo not given) + Cn1nnc2c(C(N)=O)ncn2c1=O
inactive: viability, T/C [1] 109% | viability, T/C [2] 105% | viability, T/C [3] 134% | viability, T/C [4] 114% | viability, T/C [5] 81.2% | viability, T/C [6] 80.3% | viability, T/C [7] 104% | viability, T/C [8] 113% | viability, T/C [9] 120% | viability, T/C [10] 103% | viability, T/C [11] 87.6% | viability, T/C [12] 73.5% | viability, T/C [13] 107% | viability, T/C [14] 124% | viability, T/C [15] 129% | viability, T/C [16] 113% | viability, T/C [17] 90.2% | viability, T/C [18] 74.5% | viability, T/C [19] 111% | viability, T/C [20] 130% | viability, T/C [21] 120% | viability, T/C [22] 115% | viability, T/C [23] 91.2% | viability, T/C [24] 71.9% | viability, T/C [25] 116% | viability, T/C [26] 124% | viability, T/C [27] 116% | viability, T/C [28] 111% | viability, T/C [29] 92.7% | viability, T/C [30] 82%
> 3 µM: IC50 (second compound 1 µM) | IC50 (second compound 3.16 µM) | IC50 (second compound 10 µM) | IC50 (second compound 31.6 µM) | IC50 (second compound 100 µM)

Cn1ncnc1[C@H]1c2n[nH]c(=O)c3cc(F)cc(c23)N[C@@H]1c1ccc(F)cc1 + Cn1nnc2c(C(N)=O)ncn2c1=O
> 3 µM: IC50 (second compound 1 µM) | IC50 (second compound 3.16 µM) | IC50 (second compound 10 µM) | IC50 (second compound 31.6 µM) | IC50 (second compound 100 µM)
inactive: viability, T/C [1] 89.4% | viability, T/C [2] 79.4% | viability, T/C [3] 87.8% | viability, T/C [4] 81.2% | viability, T/C [5] 88.8% | viability, T/C [6] 70% | viability, T/C [7] 77.9% | viability, T/C [8] 113% | viability, T/C [9] 84.3% | viability, T/C [10] 74.3% | viability, T/C [11] 81.5% | viability, T/C [12] 67.8% | viability, T/C [13] 83.1% | viability, T/C [14] 71% | viability, T/C [15] 73.8% | viability, T/C [16] 76.2% | viability, T/C [17] 77.1% | viability, T/C [18] 59.3% | viability, T/C [19] 90.3% | viability, T/C [20] 74.1% | viability, T/C [21] 78.8% | viability, T/C [22] 76.5% | viability, T/C [23] 70.9% | viability, T/C [24] 69.3% | viability, T/C [25] 92.2% | viability, T/C [26] 68.8% | viability, T/C [27] 64.5% | viability, T/C [28] 68.9% | viability, T/C [29] 59.5% | viability, T/C [30] 57.7%

[2H]c1nc(C)nc([2H])c1-c1cc(NC[C@@H](C)c2cccc3c(C(=O)NC)ccnc23)ncn1 + Cn1nnc2c(C(N)=O)ncn2c1=O
inactive: viability, T/C [31] 103% | viability, T/C [32] 101% | viability, T/C [33] 93% | viability, T/C [34] 116% | viability, T/C [35] 88.2% | viability, T/C [36] 84.4% | viability, T/C [37] 105% | viability, T/C [38] 92.1% | viability, T/C [39] 94% | viability, T/C [40] 97.5% | viability, T/C [41] 100% | viability, T/C [42] 99.3% | viability, T/C [43] 85.5% | viability, T/C [44] 80.7% | viability, T/C [45] 77.9% | viability, T/C [46] 99.2% | viability, T/C [47] 107% | viability, T/C [48] 116% | viability, T/C [49] 81.8% | viability, T/C [50] 89.3% | viability, T/C [51] 89.9% | viability, T/C [52] 91.9% | viability, T/C [53] 102% | viability, T/C [54] 99.5% | viability, T/C [55] 96.8% | viability, T/C [56] 88.9% | viability, T/C [57] 100% | viability, T/C [58] 92.5% | viability, T/C [59] 91.8% | viability, T/C [60] 95.3%
> 10 µM: IC50 (second compound 1 µM) | IC50 (second compound 3.16 µM) | IC50 (second compound 10 µM) | IC50 (second compound 31.6 µM) | IC50 (second compound 100 µM)

From PubChem BioAssay AID1845211 (Molecular Pharmacology Branch, DTP, NCI, 2023)
